Patent US9212184B2, “6-thio-substituted imidazo[1,2-a]pyrazines as Mps-1 inhibitors” (BAYER INTELLECTUAL PROPERTY GMBH, priority 2010, dated 2015)

The compounds below were run against human kinase Mps-1 (Homo sapiens (Human), UniProt P33981) (assay: Mps-1 kinase assay (TR-FRET)). Conditions: N-terminally GST-tagged human full length recombinant Mps-1; 10 μM ATP; 1 μM peptide substrate; 60 min at 22° C.; read-out: Mps1 IC50.
Chain of human kinase Mps-1 (P33981 whole entry): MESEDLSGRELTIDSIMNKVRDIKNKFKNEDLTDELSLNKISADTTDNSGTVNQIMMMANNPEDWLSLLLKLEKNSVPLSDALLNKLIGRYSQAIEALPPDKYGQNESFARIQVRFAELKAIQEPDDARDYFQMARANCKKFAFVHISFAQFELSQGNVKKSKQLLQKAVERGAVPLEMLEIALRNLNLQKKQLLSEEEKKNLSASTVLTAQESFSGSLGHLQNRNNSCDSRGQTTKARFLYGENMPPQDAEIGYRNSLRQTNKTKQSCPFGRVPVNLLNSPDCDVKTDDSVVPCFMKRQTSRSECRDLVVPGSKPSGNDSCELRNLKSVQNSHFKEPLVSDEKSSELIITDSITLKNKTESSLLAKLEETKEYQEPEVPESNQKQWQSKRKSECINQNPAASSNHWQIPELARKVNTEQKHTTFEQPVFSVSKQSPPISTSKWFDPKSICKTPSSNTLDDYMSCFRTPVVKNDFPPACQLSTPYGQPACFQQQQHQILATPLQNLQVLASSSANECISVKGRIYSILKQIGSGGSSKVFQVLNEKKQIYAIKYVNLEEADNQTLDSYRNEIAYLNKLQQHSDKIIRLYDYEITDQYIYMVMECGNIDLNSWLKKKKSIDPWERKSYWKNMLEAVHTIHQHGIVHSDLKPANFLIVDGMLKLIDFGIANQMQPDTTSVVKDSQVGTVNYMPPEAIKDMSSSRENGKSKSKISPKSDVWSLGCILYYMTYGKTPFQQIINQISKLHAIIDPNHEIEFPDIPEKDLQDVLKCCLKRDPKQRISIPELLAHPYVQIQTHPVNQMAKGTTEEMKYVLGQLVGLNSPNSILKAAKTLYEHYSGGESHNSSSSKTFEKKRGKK
Format: biochemical
Procedure: The human kinase Mps-1 phosphorylates a biotinylated substrate peptide. Detection of the phosphorylated product is achieved by time-resolved fluorescence resonance energy transfer (TR-FRET) from Europium-labelled anti-phospho-Serine/Threonine antibody as donor to streptavidin labelled with cross-linked allophycocyanin (SA-XLent) as acceptor. Compounds are tested for their inhibition of the kinase activity.
N-terminally GST-tagged human full length recombinant Mps-1 kinase (purchased from Invitrogen, Karslruhe, Germany, cat. no PV4071) was used. As substrate for the kinase reaction a biotinylated peptide of the amino-acid sequence PWDPDDADITEILG (C-terminus in amide form, purchased from Biosynthan GmbH, Berlin) was used.
For the assay 50 nL of a 100-fold concentrated solution of the test compound in DMSO was pipetted into a black low volume 384 well microtiter plate (Greiner Bio-One, Frickenhausen, Germany), 2 μl of a solution of Mps-1 in assay buffer [0.1 mM sodium-ortho-vanadate, 10 mM MgCl2, 2 mM DTT, 25 mM Hepes pH 7.7, 0.05% BSA, 0.001% Pluronic F-127] were added and the mixture was incubated for 15 min at 22° C. to allow pre-binding of the test compounds to Mps-1 before the start of the kinase reaction. […]
The resulting mixture was incubated 1 h at 22° C. to allow the binding of the phosphorylated peptide to the anti-phospho(Ser/Thr)-Europium-antibody. Subsequently the amount of phosphorylated substrate was evaluated by measurement of the resonance energy transfer from the Europium-labelled anti-phospho(Ser/Thr) antibody to the Streptavidin-XLent. Therefore, the fluorescence emissions at 620 nm and 665 nm after excitation at 350 nm was measured in a Viewlux TR-FRET reader (PerkinElmer LAS, Rodgau-Jügesheim, Germany). The “blank-corrected normalized ratio” (a Viewlux specific readout, similar to the traditional ratio of the emissions at 665 nm and at 622 nm, in which blank and Eu-donor crosstalk are subtracted from the 665 nm signal before the ratio is calculated) was taken as the measure for the amount of phosphorylated substrate. […]
In the case of `CSc1cn2c(-c3ccc(C(=O)NC4CC4)cc3)cnc2c(NCC(C)C)n1` [Example 1-2, N-cyclopropyl-4-{8-[(2-methylpropyl)amino]-6-(methylsulfanyl)imidazo[1,2-a]pyrazin-3-yl}benzamide], the IC50 is reported as 5 nM. With `CSc1cn2c(-c3ccc(C(=O)NC4CC4)c(C)c3)cnc2c(NCCC(F)(F)F)n1` [Example 1-3, N-cyclopropyl-2-methyl-4-{6-(methylsulfanyl)-8-[(3,3,3-trifluoropropyl)amino]imidazo[1,2-a]pyrazin-3-yl} benzamide] the IC50 was 8.6 nM. `CSc1cn2c(-c3ccc(C(=O)NC4CC4)c(C)c3)cnc2c(NCC(C)(C)O)n1` [Example 1-4, N-cyclopropyl-4-{8-[(2-hydroxy-2-methylpropyl)amino]-6-(methylsulfanyl)imidazo [1,2-a]pyrazin-3-yl}-2-methylbenzamide] was tested, and the IC50 was 64.8 nM.
